The source of these data is patent EP0306904A2, “Phosphoric acid diesters and salts thereof” (Senju Pharmaceutical Co., Ltd., priority 1987, dated 1989).

For experiment [1], the system named is mixture micelles, which were prepared from phospholipid (egg lecithin) and ethanol. Description: Anti-oxidative activity: oxidation of mixture micelles (egg lecithin and ethanol) by ferrous-ion/ascorbic acid, thiobarbituric acid readout. Particulars: for Rate of inhibition (%): 25 °C, 15 min, ferrous sulfate/sodium ascorbate; for inhibition of oxidation: summary in words of the micelle oxidation results. The format is biochemical. As to the method: Anti-oxidative activity of the compounds prepared in example 1 and example 4 were determined using, as an index, oxidation of mixture micelles, which were prepared from phospholipid (egg lecithin) and ethanol, by ferrous-ion/ascorbic acid
To a solution of approx. 78 mg of egg lecithin in 2 ml of ethanol was added gradually 5 mM HEPES buffer solution (pH 7.2), under sonication (50 W) and ice-cooling, to make a 100-ml suspension. To 1,000 µ l of the suspension were added 200 µ l of 2.6 x 10⁻⁴ M solution of one of the test compounds in 50 v/v % ethanol, 50 µ l of 5.0 x 10⁻⁵ M sodium ascorbate solution in water and 50 µ l of 2.5 x 10⁻⁶ M ferrous sulfate solution in water. The mixture was placed in a water bath at 25 °C for 15 min for oxidation. Instantly after the reaction, 50 µ l of 0.1 % hydroquinone solution in ethanol was added to stop the reaction. To the mixture were added 200 µ l of 20 w/v % trichloroacetic acid and 2,000 µ l of 50 v/v % acetic acid containing thiobarbituric acid (Merck) at the concentration of 0.35 %, followed by heating for 15 min under reflux at 100 °C. After cooling, absorp tion within the range of 450-600 nm was measured by spectrophotography, within which range increase in absorbance at approx. 530-540 nm was determined. […]

Another experiment relates to lens. Briefly: Anti-oxidative activity in a model employing UV-induced oxidation of the lens.
[2] abbreviates: Final concentration 4.0 x 10⁻⁵ (unit not given; M).
Where [3] appears, read: Final concentration 4.0 x 10⁻⁶ (unit not given; M).

As for `Cc1c(C)c2c(c(C)c1OP(=O)([O-])OC1=C(O)[C@@H]([C@@H](O)CO)OC1=O)CCC(C)(CCCC(C)CCCC(C)C)O2.[K+]` (stereo partly drawn) [Example 1, potassium salt of phosphoric acid (L-ascorbic acid-2-0)(2,5,7,8-tetramethyl-2-(4,8-dimethylnonyl)chromanyl-6) ester], the “Rate of inhibition (%)” value came to 94.44% in experiment [1] (setting [2]) and 89.57% in experiment [1] (setting [3]). The inhibition of oxidation entry in experiment [1] was “nearly complete inhibition of oxidation”. In the experiment on lens, the “inhibition of accumulation of malonedialdehyde” value was “significant inhibition”.

On to `Cc1c(C)c2c(c(C)c1OP(=O)([O-])OC1=C(O)[C@@H]([C@@H](O)CO)OC1=O)CCC(C)(CCCC(C)CCCC(C)CCCC(C)CCCC(C)C)O2.[K+]` (stereo partly drawn) [Example 4, potassium salt of phosphoric acid (L-ascorbic acid-2-0)(2,5,7,8-tetramethyl-2-(4,8,12,16-tetramethylheptadecyl)chromanyl-6) ester], for which the “Rate of inhibition (%)” value in experiment [1] (setting [2]) was found to be 99.90%; in experiment [1] (setting [3]), 95.22%. The inhibition of oxidation entry in experiment [1] is on record as “nearly complete inhibition of oxidation”. The “inhibition of accumulation of malonedialdehyde” value in the experiment with lens was “significant inhibition”.
